Reference: the NIST ThermoML archive (doi:10.1021/acs.jced.7b00783)
± gives the expanded uncertainty stated by the source.

Details: Liquid, Ebulliometric method (Recirculating still)

**Q.** For CCC(C)=O [butanone], which “vapor or sublimation pressure” value (352.72 K) is on record?
**A.** The value was 101.3 ± 0.46 kPa.

**Q.** For CCO [ethanol], which “vapor or sublimation pressure” value (351.45 K) is on record?
**A.** Its value is 101.3 ± 0.46 kPa.
